Assay results reported in patent US9469615B2, “Quinoxalines and AZA-quinoxalines as CRTH2 receptor modulators” (Merck Sharp & Dohme Corp., priority 2010, dated 2016).

Target: T1, hCRTH2 (Homo sapiens, UniProt Q9Y5Y4)
T1 construct: expressed in transfected cells; host or cells: HEK (human embryonic kidney) cells expressing hCRTH2; membrane preparation
T1 sequence (Q9Y5Y4 1-395): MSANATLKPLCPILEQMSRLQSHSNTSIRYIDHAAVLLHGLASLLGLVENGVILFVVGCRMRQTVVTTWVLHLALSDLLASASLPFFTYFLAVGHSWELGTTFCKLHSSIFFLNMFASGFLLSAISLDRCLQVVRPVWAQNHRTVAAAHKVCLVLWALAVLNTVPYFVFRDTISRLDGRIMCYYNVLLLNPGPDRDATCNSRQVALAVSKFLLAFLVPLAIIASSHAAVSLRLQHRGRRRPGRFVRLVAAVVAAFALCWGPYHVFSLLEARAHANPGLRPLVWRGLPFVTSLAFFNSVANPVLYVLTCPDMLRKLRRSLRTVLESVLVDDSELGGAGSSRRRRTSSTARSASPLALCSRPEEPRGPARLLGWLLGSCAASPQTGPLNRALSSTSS
Experiment: Radioligand binding assay ([3H]PGD2 competition, HEK-hCRTH2 membranes)
Details: [3H]PGD2 binding
Method in brief: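 Displacement of 3.0 nM [3H]PGD2 from human CRTH2 expressed in HEK membranes was measured at room temperature over 60 min. Unlabelled PGD2 at 10 μM gave non-specific binding.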

O=C(O)CCCCc1nc2cc(C(=O)N[C@H](c3ccccc3)C(F)(F)F)ccc2nc1-c1ccc(F)cc1 [compound 137, 3-(4-fluorophenyl)-7-[[[2,2,2-2-trifluoro-1(R)-phenylethyl)amino]carbonyl]-2-quinoxalinepentanoic acid]
Ki (rated A-E (Table A)): 20.1 to 200 nM

O=C(O)CCCCc1nc2cc(C(=O)N[C@@H](c3ccc(F)cc3)C(F)(F)F)ccc2nc1-c1ccc(F)cc1 [compound 138, 3-(4-fluorophenyl)-7-[[[2,2,2-trifluoro-1(S)-(4-fluorophenyl)ethyl]amino]carbonyl]-2-quinoxalinepentanoic acid]
Ki (rated A-E (Table A)): 2.1 to 20 nM

O=C(O)CCCCc1nc2cc(C(=O)N[C@H](c3ccc(F)cc3)C(F)(F)F)ccc2nc1-c1ccc(F)cc1 [compound 139, 3-(4-fluorophenyl)-7-[[[(1R)-2,2,2-trifluoro-1-(4-fluorophenyl)ethyl]amino]carbonyl]-2-quinoxalinepentanoic acid]
Ki (rated A-E (Table A)): 2.1 to 20 nM

O=C(O)CCCCc1nc2cc(C(=O)N3CC[C@@H](c4ccccc4)C3)ccc2nc1-c1ccccc1 [compound 140, 3-phenyl-7-[(3(S)-phenyl-1-pyrrolidinyl)carbonyl]-2-quinoxalinepentanoic acid]
Ki (rated A-E (Table A)): 0.1 to 2 nM

O=C(O)CCCCc1nc2cc(C(=O)N3CC[C@H](c4ccccc4)C3)ccc2nc1-c1ccccc1 [compound 141, 3-phenyl-7-[(3(R)-phenyl-1-pyyrolidinyl)carbonyl]-2-quinoxalinepentanoic acid]
Ki (rated A-E (Table A)): 2.1 to 20 nM

O=C(O)CCCCc1nc2cc(C(=O)N3CCC[C@@H](c4ccccc4)C3)ccc2nc1-c1ccccc1 [compound 142, 3-phenyl-7-[(3(S)-phenyl-1-piperidinyl)carbonyl]-2-quinoxalinepentanoic acid]
Ki (rated A-E (Table A)): 2.1 to 20 nM

O=C(O)CCCCc1nc2cc(C(=O)N3CCC[C@H](c4ccccc4)C3)ccc2nc1-c1ccccc1 [compound 143, 3-phenyl-7-[(3(R)-phenyl-1-piperidinyl)carbonyl]-2-quinooxalinepentanoic acid]
Ki (rated A-E (Table A)): 2.1 to 20 nM

NC(=O)c1ccc2nc(-c3ccccc3)c(CCCCC(=O)O)nc2c1 [compound 144, 5-(7-carbamoyl-3-phenylquinoxalin-2-yl)pentanoic acid]
Ki (rated A-E (Table A)): 20.1 to 200 nM
Ki (values in text): 118 nM

O=C(O)CCCCc1nc2cc(C(=O)N3CCC(n4ccnc4)CC3)ccc2nc1-c1ccccc1 [compound 145, 5-(7-(4-(1H-imidazol-1-yl)piperidine-l-carbonyl)-3-phenylquinoxalin-2-yl)pentanoic acid]
Ki (rated A-E (Table A)): 2.1 to 20 nM

C[C@H](NC(=O)c1ccc2nc(-c3ccc(C(F)(F)F)cc3)c(CCCCC(=O)O)nc2c1)c1ccccn1 [compound 146, 7-[[[1(S)-(2-pyridinyl)ethyl]amino]carbonyl]-3-[4-(trifluoromethyl)phenyl]-2-quinoxalinepentanoic acid]
Ki (rated A-E (Table A)): 20.1 to 200 nM
Ki (values in text): 132 nM

C[C@@H](NC(=O)c1ccc2nc(-c3ccc(C(F)(F)F)cc3)c(CCCCC(=O)O)nc2c1)c1ccccn1 [compound 147, 7-[[[1(R)-(2-pyridinyl)ethyl]amino]carbonyl]-3-[4-(trifluoromethyl)phenyl]-2-quinoxalinepentanoic acid]
Ki (rated A-E (Table A)): 2.1 to 20 nM

O=C(O)CCCCc1nc2cc(C(=O)N3CCC(c4ccccc4)CC3)ccc2nc1-c1ccc(C(F)(F)F)cc1 [compound 148, 7-[(4-phenyl-1-piperidinyl)carbonyl]-3-[4-(trifluoromethyl)phenyl]-2-quinoxalinepentanoic acid]
Ki (rated A-E (Table A)): 0.1 to 2 nM

O=C(O)CCCCc1nc2cc(C(=O)N[C@@H](c3ccccc3)C(F)(F)F)ccc2nc1-c1ccc(C(F)(F)F)cc1 [compound 149, 3-[4-(trifluoromethyl)phenyl]-7-[[(2,2,2-trifluoro-1(S)-phenylethyl)amino]carbonyl]-2-quinoxalinepentanoic acid]
Ki (rated A-E (Table A)): 2.1 to 20 nM

O=C(O)CCCCc1nc2cc(C(=O)NC3Cc4ccccc4C3)ccc2nc1-c1ccc(C(F)(F)F)cc1 [compound 150, 7-[[(2,3-dihydro-1H-inden-2-yl)amino]carbonyl]-3-[4-(trifluoromethyl)phenyl]-2-quinoxalinepentanoic acid]
Ki (rated A-E (Table A)): 0.1 to 2 nM

O=C(O)CCCCc1nc2cc(C(=O)NCc3cccc(Cl)c3)ccc2nc1-c1ccc(C(F)(F)F)cc1 [compound 151, 7-[[[(3-chlorophenyl)methyl]amino]carbonly]-3-[4-(trifluoromethyl)phenyl]-2-quinoxalinepentanoic acid]
Ki (rated A-E (Table A)): 0.1 to 2 nM

O=C(O)CCCCc1nc2cc(C(=O)N3CC(c4ccccc4)C3)ccc2nc1-c1ccc(C(F)(F)F)cc1 [compound 154, 7-[(3-phenyl-1-azetidinyl)carbonyl]-3-[4-(trifluoromethyl)phenyl]-2-quinoxalinepentanoic acid]
Ki (rated A-E (Table A)): 0.1 to 2 nM

O=C(O)CCCCc1nc2cc(C(=O)NCc3ccc(Cl)cc3)ccc2nc1-c1ccc(C(F)(F)F)cc1 [compound 155, 7-[[[(4-chlorophenyl)methyl]amino]carbonyl]-3-[4-(trifluoromethyl)phenyl]-2-quinoxalinepentanoic acid]
Ki (rated A-E (Table A)): 2.1 to 20 nM

O=C(O)CCCCc1nc2cc(C(=O)NCc3ccc(OC(F)(F)F)cc3)ccc2nc1-c1ccc(C(F)(F)F)cc1 [compound 156, 7-[[[[4-(trifluoromethoxy)phenyl]methyl]amino]carbonyl]-3-[4-(trifluoromethyl)phenyl]-2-quinoxalinepentanoic acid]
Ki (rated A-E (Table A)): 2.1 to 20 nM

N#Cc1ccc(CNC(=O)c2ccc3nc(-c4ccc(C(F)(F)F)cc4)c(CCCCC(=O)O)nc3c2)cc1 [compound 157, 7-[[[(4-cyanophenyl)methyl]amino]carbonyl]-3-[4-(trifluoromethyl)phenyl]-2-quinoxalinepentanoic acid]
Ki (rated A-E (Table A)): 2.1 to 20 nM

O=C(O)Cc1ccc(CCc2nc3cc(C(=O)N4CCC(c5ccccc5)CC4)ccc3nc2-c2ccc(Cl)cc2)cc1 [compound 158, 4-[2-[3-(4-chlorophenyl)-7-[(4-phenyl-1-piperidinyl)carbonyl]-2-quinoxalinyl]ethyl] benzeneacetic acid]
Ki (rated A-E (Table A)): 201 to 700 nM

O=C(O)Cc1ccc(CCc2nc3cc(C(=O)NCc4cccc(Cl)c4)ccc3nc2-c2ccc(Cl)cc2)cc1 [compound 159, 4-[2-[3-(4-chlorophenyl)-7-[[[(3-chlorophenyl)methyl]amino]carbonyl]-2-quinoxalinyl]ethyl] benzeneacetic acid]
Ki (rated A-E (Table A)): 201 to 700 nM
Ki (values in text): 564 nM

CC(CCCc1nc2cc(C(=O)NCc3cccc(F)c3)ccc2nc1-c1ccc(Cl)cc1)C(=O)O (stereo not drawn) [compound 160, 3-(4-chlorophenyl)-7-[[[(3-fluorophenyl)methyl]amino]carbonyl]-alpha-methyl-2-quinoxalinepentanoic acid]
Ki (rated A-E (Table A)): 2.1 to 20 nM

CC(CCCc1nc2cc(C(=O)NCc3ccc(F)cc3)ccc2nc1-c1ccc(Cl)cc1)C(=O)O (stereo not drawn) [compound 161, 3-(4-chlorophenyl)-7-[[[(4-fluorophenyl)methyl]amino]carbonyl]-alpha-methyl-2-quinoxalinepentanoic acid]
Ki (rated A-E (Table A)): 2.1 to 20 nM

CC(CCCc1nc2cc(C(=O)N3CCC(c4ccccc4)CC3)ccc2nc1-c1ccc(Cl)cc1)C(=O)O (stereo not drawn) [compound 162, 3-(4-chlorophenyl)-alpha-methyl-7-[(4-phenyl-1-piperidinyl)carbonyl]-2-quinoxalinepentanoic acid]
Ki (rated A-E (Table A)): 0.1 to 2 nM

CC(CCCc1nc2cc(C(=O)N[C@@H](c3ccccc3)C(F)(F)F)ccc2nc1-c1ccc(Cl)cc1)C(=O)O (stereo partly drawn) [compound 163, 3-(4-chlorophenyl)-alpha-methyl-7-[[(2,2,2-trifluoro-1(S)-phenylethyl)amino]carbonyl]-2-2-quinoxalinepentanoic acid]
Ki (rated A-E (Table A)): 2.1 to 20 nM

CC(CCCc1nc2cc(C(=O)NCc3ccc(C#N)cc3)ccc2nc1-c1ccc(Cl)cc1)C(=O)O (stereo not drawn) [compound 164, 3-(4-chlorophenyl)-7-[[[(4-cyanophenyl)methyl]amino]carbonyl]-alpha-methyl-2-quinoxalinepentanoic acid]
Ki (rated A-E (Table A)): 2.1 to 20 nM

CC(CCCc1nc2cc(C(=O)N3CC(c4ccccc4)C3)ccc2nc1-c1ccc(Cl)cc1)C(=O)O (stereo not drawn) [compound 165, 3-(4-chlorophenyl)-alpha-methyl-7-[(3-phenyl-1-azetidinyl)carbonyl]-2-quinoxalinepentanoic acid]
Ki (rated A-E (Table A)): 2.1 to 20 nM

CC(CCCc1nc2cc(C(=O)N[C@H](C)c3ccc(F)cc3)ccc2nc1-c1ccc(Cl)cc1)C(=O)O (stereo partly drawn) [compound 166, 3(4-chlorophenyl)-7-[[[1(R)-(4-fluorophenyl)ethyl]amino]carbonyl]-alpha-methyl-2-quinoxalinepentanoic acid]
Ki (rated A-E (Table A)): 2.1 to 20 nM

CC(CCCc1nc2cc(C(=O)N[C@@H](C)c3ccc(F)cc3)ccc2nc1-c1ccc(Cl)cc1)C(=O)O (stereo partly drawn) [compound 167, 3-(4-chlorophenyl)-7-[[[1(S)-(4-fluorophenyl)ethyl]amino]carbonyl]-alpha-methyl-2-quinoxalinepentanoic acid]
Ki (rated A-E (Table A)): 2.1 to 20 nM

CC(CCCc1nc2cc(C(=O)NC3Cc4ccccc4C3)ccc2nc1-c1ccc(Cl)cc1)C(=O)O (stereo not drawn) [compound 168, 3-(4-chlorophenyl)-7-[[(2,3-dihydro-1H-inden-2-yl)amino]carbonyl]-alpha-methyl-2-quinoxalinepentanoic acid]
Ki (rated A-E (Table A)): 2.1 to 20 nM

CC(CCCc1nc2cc(C(=O)N3CCN(c4ccccc4)CC3)ccc2nc1-c1ccc(Cl)cc1)C(=O)O (stereo not drawn) [compound 169, 3-(4-chlorophenyl)-alpha-methyl-7-[(4-phenyl-1-piperazinyl)carbonyl]-2-quinoxalinepentanoic acid]
Ki (rated A-E (Table A)): 2.1 to 20 nM
